Assay [1] has as its target T1, PI3Kalpha (PI3Ka) (Homo sapiens, UniProt P42336).
T1 construct: endogenous in cells; host or cells: cell lysate
The experiment in a line: kinobeads assay, PI3Kalpha. It counts as binding. Summed up:
(§1)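 Read-out is multiplexed immunodetection of kinase eluted from phenylmorpholin-chromen ligand beads after their incubation in cell lysate with test compound at various concentrations. Reduced capture reflects competition, and per-kinase dose-response curves yield IC50.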

Assay [2] has as its target T2, PI3 Kgamma (PI3 Kg) (Homo sapiens, UniProt P48736).
T2 construct: endogenous in cells; host or cells: cell lysate
The experiment in a line: kinobeads assay, PI3Kgamma. The assay is classed as binding. Summed up: as §1

For assay [3], the target named is T3, mTOR (Homo sapiens, UniProt P42345).
T3 construct: endogenous in cells; host or cells: Jurkat, clone E6-1 (ATCC TIB-152) cell lysate
The assay can be described thus: mTOR kinobeads assay (competitive binding in Jurkat cell lysate, immunodetection). An outline of the steps:
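IC50 derived from dose-response curves of mTOR captured on immobilized phenylmorpholin-chromen beads, detected by antibody dot blot with infrared fluorescence.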

The target of assay [4] is T4, PI3 Kbeta (PI3 Kb) (Homo sapiens, UniProt P42338).
T4 construct: endogenous in cells; host or cells: cell lysate
T4 sequence (P42338 whole entry): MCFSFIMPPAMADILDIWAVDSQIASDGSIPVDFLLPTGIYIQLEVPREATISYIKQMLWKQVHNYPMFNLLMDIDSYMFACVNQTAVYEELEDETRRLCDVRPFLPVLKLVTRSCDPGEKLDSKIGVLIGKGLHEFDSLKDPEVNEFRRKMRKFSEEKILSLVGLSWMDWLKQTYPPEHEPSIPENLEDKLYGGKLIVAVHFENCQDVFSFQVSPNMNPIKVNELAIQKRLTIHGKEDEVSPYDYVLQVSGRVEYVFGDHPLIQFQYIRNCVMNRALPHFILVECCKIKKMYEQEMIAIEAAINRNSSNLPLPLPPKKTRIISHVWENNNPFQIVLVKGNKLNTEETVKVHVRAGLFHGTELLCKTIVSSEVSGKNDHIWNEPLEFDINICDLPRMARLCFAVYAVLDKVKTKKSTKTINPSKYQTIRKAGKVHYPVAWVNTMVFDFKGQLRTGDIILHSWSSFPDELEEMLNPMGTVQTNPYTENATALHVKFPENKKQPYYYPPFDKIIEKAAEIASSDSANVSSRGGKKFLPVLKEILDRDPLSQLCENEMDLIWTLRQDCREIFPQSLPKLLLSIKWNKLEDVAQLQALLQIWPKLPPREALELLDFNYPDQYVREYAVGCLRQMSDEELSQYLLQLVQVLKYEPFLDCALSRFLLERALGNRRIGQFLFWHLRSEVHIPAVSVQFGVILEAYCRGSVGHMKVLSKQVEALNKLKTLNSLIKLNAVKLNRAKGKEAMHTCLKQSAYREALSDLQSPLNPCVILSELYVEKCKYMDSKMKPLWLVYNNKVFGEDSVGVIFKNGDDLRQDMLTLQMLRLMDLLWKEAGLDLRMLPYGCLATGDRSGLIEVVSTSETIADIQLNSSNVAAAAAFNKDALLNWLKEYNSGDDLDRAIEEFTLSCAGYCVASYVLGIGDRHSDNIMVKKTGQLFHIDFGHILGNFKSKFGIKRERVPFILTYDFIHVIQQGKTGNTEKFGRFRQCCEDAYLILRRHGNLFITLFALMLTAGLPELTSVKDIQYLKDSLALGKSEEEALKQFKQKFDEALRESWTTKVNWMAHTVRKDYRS
T4 sequence (P27986 whole entry partner): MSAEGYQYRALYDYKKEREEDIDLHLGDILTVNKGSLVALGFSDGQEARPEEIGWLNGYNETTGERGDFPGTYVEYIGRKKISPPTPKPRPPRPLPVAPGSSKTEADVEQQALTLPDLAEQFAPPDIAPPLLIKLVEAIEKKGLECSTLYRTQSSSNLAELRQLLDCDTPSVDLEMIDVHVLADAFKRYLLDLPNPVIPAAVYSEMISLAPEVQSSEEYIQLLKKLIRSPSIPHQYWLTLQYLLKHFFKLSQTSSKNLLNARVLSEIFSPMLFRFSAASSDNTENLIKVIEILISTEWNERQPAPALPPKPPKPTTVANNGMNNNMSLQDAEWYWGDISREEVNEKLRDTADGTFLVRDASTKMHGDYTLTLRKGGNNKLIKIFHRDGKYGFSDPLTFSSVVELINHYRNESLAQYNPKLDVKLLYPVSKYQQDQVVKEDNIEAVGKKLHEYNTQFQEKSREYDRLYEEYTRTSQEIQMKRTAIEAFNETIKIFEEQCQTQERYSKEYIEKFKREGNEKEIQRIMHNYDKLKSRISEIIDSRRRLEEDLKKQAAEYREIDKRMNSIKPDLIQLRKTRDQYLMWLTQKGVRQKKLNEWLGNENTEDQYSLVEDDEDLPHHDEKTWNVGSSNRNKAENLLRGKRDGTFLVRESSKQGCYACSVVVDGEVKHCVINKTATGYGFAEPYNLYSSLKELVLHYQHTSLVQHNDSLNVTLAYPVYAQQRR
The experiment in a line: kinobeads assay, PI3Kbeta. The assay is classed as binding. Summed up:
as §1

Setting [5] is: kinobeads assay, Table 6, read-out: Inhibition values (IC50) PI3Kg.
Setting [6] is: kinobeads assay, Table 4, read-out: Inhibition values (IC50) mTor.
Where [7] appears, read: kinobeads assay, Table 6, read-out: Inhibition values (IC50) mTOR.
Where [8] appears, read: kinobeads assay, Table 6, read-out: Inhibition values (IC50) PI3Kb.
Where [9] appears, read: Further Kinobeads Data, read-out: PI3Kg.
The mark [10] stands for this setting: Further Kinobeads Data, read-out: mTor.
[11] abbreviates: Further Kinobeads Data, read-out: PI3Kb.
[12] abbreviates: kinobeads assay, Table 6, read-out: Inhibition values (IC50) PI3Ka.
The mark [13] stands for this setting: Further Kinobeads Data, read-out: PI3Ka.

Like-named read-outs stand apart in the source and are kept apart here.

T1 sequence (P42336 whole entry): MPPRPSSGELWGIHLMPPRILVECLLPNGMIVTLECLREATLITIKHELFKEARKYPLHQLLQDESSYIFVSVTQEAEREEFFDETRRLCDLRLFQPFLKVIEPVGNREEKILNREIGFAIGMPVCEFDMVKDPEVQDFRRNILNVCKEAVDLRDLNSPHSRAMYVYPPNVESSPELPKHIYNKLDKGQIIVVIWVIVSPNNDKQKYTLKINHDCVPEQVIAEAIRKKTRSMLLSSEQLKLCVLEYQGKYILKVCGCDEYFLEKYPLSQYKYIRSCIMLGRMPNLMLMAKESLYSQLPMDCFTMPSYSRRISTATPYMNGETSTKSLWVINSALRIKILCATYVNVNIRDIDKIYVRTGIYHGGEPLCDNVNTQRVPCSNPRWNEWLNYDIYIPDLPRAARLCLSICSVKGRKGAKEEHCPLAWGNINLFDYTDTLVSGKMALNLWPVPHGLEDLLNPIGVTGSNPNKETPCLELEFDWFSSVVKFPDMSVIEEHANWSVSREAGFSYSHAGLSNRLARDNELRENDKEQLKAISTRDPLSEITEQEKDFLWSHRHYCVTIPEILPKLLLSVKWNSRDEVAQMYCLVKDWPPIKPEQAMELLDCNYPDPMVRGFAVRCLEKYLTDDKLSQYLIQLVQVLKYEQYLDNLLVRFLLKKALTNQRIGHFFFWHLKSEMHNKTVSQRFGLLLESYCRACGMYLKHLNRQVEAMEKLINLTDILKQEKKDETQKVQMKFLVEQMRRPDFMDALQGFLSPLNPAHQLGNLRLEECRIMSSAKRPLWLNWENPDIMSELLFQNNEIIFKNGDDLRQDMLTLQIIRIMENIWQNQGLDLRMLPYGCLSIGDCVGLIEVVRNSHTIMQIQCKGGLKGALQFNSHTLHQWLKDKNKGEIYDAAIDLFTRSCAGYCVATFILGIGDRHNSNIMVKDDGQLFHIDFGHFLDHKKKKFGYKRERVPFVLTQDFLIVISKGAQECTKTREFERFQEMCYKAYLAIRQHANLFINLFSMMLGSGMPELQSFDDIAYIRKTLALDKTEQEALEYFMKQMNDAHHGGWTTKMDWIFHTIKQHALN
T1 sequence (P27986 whole entry partner): as the sequence (P27986 whole entry partner) above
T2 sequence (P48736 whole entry): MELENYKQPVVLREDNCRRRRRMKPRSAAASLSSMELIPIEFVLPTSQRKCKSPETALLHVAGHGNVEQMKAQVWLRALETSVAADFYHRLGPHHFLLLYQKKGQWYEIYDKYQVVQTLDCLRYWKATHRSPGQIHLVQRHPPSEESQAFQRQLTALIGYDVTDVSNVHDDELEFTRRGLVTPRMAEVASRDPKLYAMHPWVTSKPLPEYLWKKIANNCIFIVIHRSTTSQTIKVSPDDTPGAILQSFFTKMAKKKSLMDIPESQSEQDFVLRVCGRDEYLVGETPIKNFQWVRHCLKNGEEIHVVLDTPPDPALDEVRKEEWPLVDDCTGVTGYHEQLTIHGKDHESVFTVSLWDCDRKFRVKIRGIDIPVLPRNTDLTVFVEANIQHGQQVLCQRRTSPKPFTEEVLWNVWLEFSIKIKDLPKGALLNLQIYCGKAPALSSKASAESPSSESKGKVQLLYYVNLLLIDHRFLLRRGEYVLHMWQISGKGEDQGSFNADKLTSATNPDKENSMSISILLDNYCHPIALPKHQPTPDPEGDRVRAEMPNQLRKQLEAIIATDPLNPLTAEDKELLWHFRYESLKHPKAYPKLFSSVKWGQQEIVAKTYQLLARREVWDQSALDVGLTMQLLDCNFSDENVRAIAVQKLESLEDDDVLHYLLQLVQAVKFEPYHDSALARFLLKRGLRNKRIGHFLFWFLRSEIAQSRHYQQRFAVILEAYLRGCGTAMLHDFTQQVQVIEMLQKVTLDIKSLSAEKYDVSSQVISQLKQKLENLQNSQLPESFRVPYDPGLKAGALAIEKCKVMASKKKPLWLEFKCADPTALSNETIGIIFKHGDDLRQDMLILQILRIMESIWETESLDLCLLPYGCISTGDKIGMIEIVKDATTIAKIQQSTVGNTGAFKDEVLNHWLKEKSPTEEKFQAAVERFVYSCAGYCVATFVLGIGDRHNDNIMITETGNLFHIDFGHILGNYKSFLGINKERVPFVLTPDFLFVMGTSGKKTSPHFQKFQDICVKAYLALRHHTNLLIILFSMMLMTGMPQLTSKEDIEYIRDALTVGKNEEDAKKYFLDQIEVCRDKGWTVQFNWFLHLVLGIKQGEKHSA

As to `C[C@H]1COCCN1c1nc(-c2ccc(NC(=O)Nc3ccc(F)cc3)cc2)nc2c1CN(C)C2` [Example 52, (S)-1-(4-fluorophenyl)-3-(4-(6-methyl-4-(3-methylmorpholino)-6,7-dihydro-5H-pyrrolo[3,4-d]pyrimidin-2-yl)phenyl)urea], the “Inhibition values (IC50) PI3Ka” value in assay [1] (kinobeads assay, Table 6) was “D (D >10 μM)”. The IC50 was more than 10 µM in assay [2] (setting [5]), 0.1 to 1 µM in assay [3] (setting [6]), 0.1 to 1 µM in assay [3] (setting [7]) and more than 10 µM in assay [4] (setting [8]).
As for `C[C@H]1COCCN1c1nc(-c2ccc(NC(=O)NC3CC3)cc2F)nc2c1CN(S(C)(=O)=O)C2` [Example 177, (S)-1-cyclopropyl-3-(3-fluoro-4-(4-(3-methylmorpholino)-6-(methylsulfonyl)-6,7-dihydro-5H-pyrrolo[3,4-d]pyrimidin-2-yl)phenyl)urea], the PI3Ka entry in assay [1] (Further Kinobeads Data) is “D (D >10 μM)”. Further, the results for the IC50 in assay [2] (setting [9]), in assay [3] (setting [10]) and in assay [4] (setting [11]) were more than 10 µM, less than 0.1 µM and more than 10 µM, respectively.
As to `CCNC(=O)Nc1cc(F)c(-c2nc3c(c(N4CCOC[C@@H]4C)n2)CN(C(=O)OCC)C3)cc1F` [Example 141, (S)-ethyl 2-(4-(3-ethylureido)-2,5-difluorophenyl)-4-(3-methylmorpholino)-5H-pyrrolo[3,4-d]pyrimidine-6(7H)-carboxylate], the PI3Ka result in assay [1] (Further Kinobeads Data) is “D (D >10 μM)”. Moreover, the IC50 was more than 10 µM in assay [2] (setting [9]), 1 to 10 µM in assay [3] (setting [10]) and more than 10 µM in assay [4] (setting [11]).
For `C[C@H]1COCCN1c1nc(-c2ccc(NC(=O)NC3CC3)cc2)nc2c1CCN(CC1CC1)C2` [Example 40, (S)-1-cyclopropyl-3-(4-(7-(cyclopropylmethyl)-4-(3-methylmorpholino)-5,6,7,8-tetrahydropyrido[3,4-d]pyrimidin-2-yl)phenyl)urea], the IC50 in assay [1] (setting [12]) was 1 to 10 µM; in assay [2] (setting [5]), 1 to 10 µM; in assay [3] (setting [6]), less than 0.1 µM; in assay [3] (setting [7]), less than 0.1 µM; in assay [4] (setting [8]), 1 to 10 µM.
As for `COC(=O)N1Cc2nc(-c3ccc(NC(=O)NCCF)cc3F)nc(N3CCOC[C@@H]3C)c2C1` [Example 183, (S)-methyl 2-(2-fluoro-4-(3-(2-fluoroethyl)ureido)phenyl)-4-(3-methylmorpholino)-5H-pyrrolo[3,4-d]pyrimidine-6(7H)-carboxylate], the PI3Ka result in assay [1] (Further Kinobeads Data) is “D (D >10 μM)”. The IC50 in assay [2] (setting [9]) is more than 10 µM; in assay [3] (setting [10]), 0.1 to 1 µM; in assay [4] (setting [11]) it was more than 10 µM.
In the case of `CCNC(=O)Nc1ccc(-c2nc3c(c(N4CCOCC4)n2)CN(C(=O)OC)C3)c(F)c1` [Example 162, methyl 2-(4-(3-ethylureido)-2-fluorophenyl)-4-morpholino-5H-pyrrolo[3,4-d]pyrimidine-6(7H)-carboxylate], the IC50 in assay [1] (setting [13]) was 1 to 10 µM; in assay [2] (setting [9]) it was more than 10 µM; in assay [3] (setting [10]) it was less than 0.1 µM; in assay [4] (setting [11]), 1 to 10 µM.
In the case of `CC(C)NC(=O)N1CCc2c(nc(-c3ccc(NC(=O)NC4CC4)cc3F)nc2N2CCOC[C@@H]2C)C1` [Example 189, (S)-2-(4-(3-cyclopropylureido)-2-fluorophenyl)-N-isopropyl-4-(3-methylmorpholino)-5,6-dihydropyrido[3,4-d]pyrimidine-7(8H)-carboxamide], the PI3Ka result in assay [1] (Further Kinobeads Data) is recorded as “D (D >10 μM)”. Further, the IC50 was more than 10 µM in assay [2] (setting [9]), less than 0.1 µM in assay [3] (setting [10]) and more than 10 µM in assay [4] (setting [11]).
In the case of `CCNC(=O)Nc1ccc(-c2nc3c(c(N4CCOC[C@@H]4C)n2)CN(C(=O)C(C)C)C3)cc1` [Example 21, (S)-1-ethyl-3-(4-(6-isobutyryl-4-(3-methylmorpholino)-6,7-dihydro-5H-pyrrolo[3,4-d]pyrimidin-2-yl)phenyl)urea], the IC50 in assay [1] (setting [12]) is 1 to 10 µM; in assay [2] (setting [5]), more than 10 µM; in assay [3] (setting [6]) it was less than 0.1 µM; in assay [3] (setting [7]), less than 0.1 µM; in assay [4] (setting [8]), more than 10 µM.
`C[C@H]1COCCN1c1nc(-c2ccc(NC(=O)NC3CC3)cc2)nc2c1CCN(CC(C)(C)C)C2` [Example 41, (S)-1-cyclopropyl-3-(4-(4-(3-methylmorpholino)-7-neopentyl-5,6,7,8-tetrahydropyrido[3,4-d]pyrimidin-2-yl)phenyl)urea]: in assay [1] (kinobeads assay, Table 6), the “Inhibition values (IC50) PI3Ka” value is listed as “D (D >10 μM)”. Besides, the IC50 is more than 10 µM in assay [2] (setting [5]), 0.1 to 1 µM in assay [3] (setting [6]), 0.1 to 1 µM in assay [3] (setting [7]) and more than 10 µM in assay [4] (setting [8]).
For the compound `C[C@H]1COCCN1c1nc(-c2ccc(NC(=O)NC3CC3)cc2F)nc2c1CN(C(=O)N(C)C)C2` [Example 178, (S)-2-(4-(3-cyclopropylureido)-2-fluorophenyl)-N,N-dimethyl-4-(3-methylmorpholino)-5H-pyrrolo[3,4-d]pyrimidine-6(7H)-carboxamide], the PI3Ka entry in assay [1] (Further Kinobeads Data) was “D (D >10 μM)”. The values for the IC50 in assay [2] (setting [9]), in assay [3] (setting [10]) and in assay [4] (setting [11]) were more than 10 µM, 0.1 to 1 µM and more than 10 µM, respectively.
With `COC(=O)N1Cc2nc(-c3ccc(NC(=O)NC4CC4)cc3F)nc(N3CCOC[C@H]3C)c2C1` [Example 180, (R)-methyl 2-(4-(3-cyclopropylureido)-2-fluorophenyl)-4-(3-methylmorpholino)-5H-pyrrolo[3,4-d]pyrimidine-6(7H)-carboxylate], in assay [1] (Further Kinobeads Data), the PI3Ka result is listed as “D (D >10 μM)”. The IC50 in assay [2] (setting [9]) is more than 10 µM; in assay [3] (setting [10]), less than 0.1 µM; in assay [4] (setting [11]), more than 10 µM.
In the case of `CC(C)N1Cc2nc(-c3ccc(NC(=O)NCCO)cc3F)nc(N3CCOC[C@@H]3C)c2C1` [Example 187, (S)-1-(3-fluoro-4-(6-isopropyl-4-(3-methylmorpholino)-6,7-dihydro-5H-pyrrolo[3,4-d]pyrimidin-2-yl)phenyl)-3-(2-hydroxyethyl)urea], in assay [1] (Further Kinobeads Data), the PI3Ka entry was “D (D >10 μM)”. In addition, the results for the IC50 in assay [2] (setting [9]), in assay [3] (setting [10]) and in assay [4] (setting [11]) were more than 10 µM, less than 0.1 µM and more than 10 µM, respectively.
For the compound `CC(C)N1Cc2nc(-c3ccc(NC(=O)NC4CC4)cc3F)nc(N3CCOC[C@@H]3C)c2C1` [Example 172, (S)-1-cyclopropyl-3-(3-fluoro-4-(6-isopropyl-4-(3-methylmorpholino)-6,7-dihydro-5H-pyrrolo[3,4-d]pyrimidin-2-yl)phenyl)urea], the IC50 is 1 to 10 µM in assay [1] (setting [13]), 1 to 10 µM in assay [2] (setting [9]), less than 0.1 µM in assay [3] (setting [10]) and more than 10 µM in assay [4] (setting [11]).
For `C[C@@H]1COCCN1c1nc(-c2ccc(NC(=O)NC3CC3)cc2F)nc2c1CN(C(=O)C1CC1)C2` [Example 188, (R)-1-(4-(6-(cyclopropanecarbonyl)-4-(3-methylmorpholino)-6,7-dihydro-5H-pyrrolo[3,4-d]pyrimidin-2-yl)-3-fluorophenyl)-3-cyclopropylurea], the IC50 in assay [1] (setting [13]) is 1 to 10 µM; in assay [2] (setting [9]), more than 10 µM; in assay [3] (setting [10]) it was less than 0.1 µM; in assay [4] (setting [11]), more than 10 µM.
On to `CCNC(=O)Nc1ccc(-c2nc3c(c(N4CCOC[C@@H]4C)n2)CCN(C(=O)c2ccc(F)cc2)C3)cc1` [Example 24, (S)-1-ethyl-3-(4-(7-(4-fluorobenzoyl)-4-(3-methylmorpholino)-5,6,7,8-tetrahydropyrido[3,4-d]pyrimidin-2-yl)phenyl)urea], for which the “Inhibition values (IC50) PI3Ka” value in assay [1] (kinobeads assay, Table 6) is recorded as “D (D >10 μM)”. Besides, the IC50 in assay [2] (setting [5]) was more than 10 µM; in assay [3] (setting [6]), 0.1 to 1 µM; in assay [3] (setting [7]) it was 0.1 to 1 µM; in assay [4] (setting [8]) it was more than 10 µM.
On to `CCNC(=O)Nc1ccc(-c2nc3c(c(N4CCOC[C@@H]4C)n2)CCN(C(=O)C2CC2)C3)cc1` [Example 56, (S)-1-(4-(7-(cyclopropanecarbonyl)-4-(3-methylmorpholino)-5,6,7,8-tetrahydropyrido[3,4-d]pyrimidin-2-yl)phenyl)-3-ethylurea], for which, in assay [1] (kinobeads assay, Table 6), the “Inhibition values (IC50) PI3Ka” value was “D (D >10 μM)”. Also, the IC50 is more than 10 µM in assay [2] (setting [5]), less than 0.1 µM in assay [3] (setting [6]), less than 0.1 µM in assay [3] (setting [7]) and more than 10 µM in assay [4] (setting [8]).
For the compound `CC(C)N1Cc2nc(-c3ccc(NC(=O)NCCF)cc3F)nc(N3CCOC[C@@H]3C)c2C1` [Example 186, (S)-1-(3-fluoro-4-(6-isopropyl-4-(3-methylmorpholino)-6,7-dihydro-5H-pyrrolo[3,4-d]pyrimidin-2-yl)phenyl)-3-(2-fluoroethyl)urea], in assay [1] (Further Kinobeads Data), the PI3Ka result is given as “D (D >10 μM)”. The IC50 in assay [2] (setting [9]) is more than 10 µM; in assay [3] (setting [10]) it was less than 0.1 µM; in assay [4] (setting [11]), more than 10 µM.
For the compound `CCOC(=O)N1Cc2nc(-c3ccc(NC(=O)NC4CC4)cc3F)nc(N3CCOC[C@H]3C)c2C1` [Example 179, (R)-ethyl 2-(4-(3-cyclopropylureido)-2-fluorophenyl)-4-(3-methylmorpholino)-5H-pyrrolo[3,4-d]pyrimidine-6(7H)-carboxylate], the PI3Ka result in assay [1] (Further Kinobeads Data) is “D (D >10 μM)”. Moreover, the IC50 is more than 10 µM in assay [2] (setting [9]), less than 0.1 µM in assay [3] (setting [10]) and more than 10 µM in assay [4] (setting [11]).
In the case of `CCNC(=O)Nc1ccc(-c2nc3c(c(N4CCOC[C@@H]4C)n2)CN(C(=O)OC(C)(C)C)C3)c(F)c1` [Example 153, (S)-tert-butyl 2-(4-(3-ethylureido)-2-fluorophenyl)-4-(3-methylmorpholino)-5H-pyrrolo[3,4-d]pyrimidine-6-(7H)-carboxylate], in assay [1] (Further Kinobeads Data), the PI3Ka entry is “D (D >10 μM)”. The IC50 was more than 10 µM in assay [2] (setting [9]), less than 0.1 µM in assay [3] (setting [10]) and more than 10 µM in assay [4] (setting [11]).

The values above are taken from US8785457B2 (Cellzome Limited, priority 2009, dated 2014).
